# Tested on: TPA induced ear inflammation
# Assay: 12-O-Tetradecanoylphorbol-13-Acetate (TPA) induced ear inflammation in mice
# Format: in vivo, Male C57BL/6 mice
# Details: for dose dependence of efficacy: topical test formulation
# Procedure: Efficacy of the test formulations was determined in studies using 12-O-Tetradecanoylphorbol-13-Acetate (TPA) induced ear inflammation in mice. Excessive proliferation of keratinocytes is a characteristic of psoriasis, and this cell type is a well reported target of therapy for this disease. In the present study, chronic skin inflammation was induced by repeated topical application of TPA, which is recognized by prolonged skin reaction & epidermal hyperplasia. The animal model used was Male C57BL/6 mice 6 to 8 weeks of age. Protocol: • a) Animals were randomized based on body weight and divided into six different groups consisting of 8 animals. • b) 20 μL of TPA solution containing 2 μg of TPA in vehicle (2% DMSO and 98% methanol) was applied topically on both ventral and dorsal side (10 μL each side) of the right ear of all the animals except group Group G1 on day 0, 2, 4, 7 and 9. • c) Group G1 and Group G2 were topically treated with placebo gel formulation on right ear. • d) Groups G3, G4 and G5 were topically treated with test compositions comprising apremilast (2% w/w, 4% w/w and 10% w/w concentration). • e) Group G6 was topically treated with 0.1% Betamethasone valerate cream. • f) All the formulations were uniformly applied, 25 mg each (50 mg per animal), in anterior and posterior region of the right ear daily from day 0 to day 10.
structure (smiles),measurement,setting,value
"CCOc1cc([C@@H](CS(C)(=O)=O)N2C(=O)c3cccc(NC(C)=O)c3C2=O)ccc1OC [apremilast, N-[2-[(1S)-1-(3-ethoxy-4-methoxyphenyl)-2-(methylsulfonyl)ethyl]-2,3-dihydro-1,3-dioxo-1H-isoin-dol-4-yl]acetamide]",efficacy against ear inflammation,"daily topical application of test formulation on right ear, day 0 to day 10, tested concentrations 2%, 4% and 10% apremilast",effective against ear inflammation
same,reduction on ear edema,topical test formulation containing 2% apremilast,poor reduction on ear edema which tapered off by day-9
same,dose dependence of efficacy,10% concentration of apremilast,saturation of efficacy
same,dose dependence of efficacy,between 2% and 4% apremilast,Dose-dependent increase in efficacy

# — patent publication US20190374508A1, “THERAPEUTIC TOPICAL COMPOSITIONS OF APREMILAST” (SARUDBHAVA FORMULATIONS PRIVATE LIMITED, priority 2017, published 2019)
